Experimental data taken from patent publication US9855253B2, “Pharmaceutical composition containing FK506 derivative for treating fungal infection caused by genus Cryptococcus and genus Candida and use thereof” (INTRON BIOTECHNOLOGY CO., LTD., priority 2014, dated 2018).

Legend:
Cryptococcus neoformans = test: standard agar diffusion method (paper disk), antifungal activity; type: cell-based; details: for zone of inhibition at 10 µg/mL: Cryptococcus neoformans treated with 10 μg/ml, 6 mm disk, PDA medium, incubated 2-3 days, read-out: diameters of the inhibition zones; for inhibition zones at higher concentrations (FIGS. 1 and 2): concentrations of 10 μg/ml and 40 μg/ml
Experimental: The antifungal activities of FK506 derivatives against fungi such as Cryptococcus neoformans and Candida albicans, which are human pathogenic yeasts, were analyzed by the standard agar diffusion method (Murray et al., 1995 Manual of clinical microbiology (6th ed.), Washington, ASM Press, pp. 1275-1294), 100 μL of a standardized inoculam containing 10^7 CFU/ml, of a fungal suspension was uniformly plated in a Petri dish containing 20 mL of potato-dextrose agar (PDA) medium, and was dried for 5 minutes. A sterilized Whatman No. 1 filter paper disk baying a diameter of 6 mm was wet with each of 0.1 μg, 1 μg, 10 μg and 40 μg/ml of FK506 derivative dissolved in the same solvent as that used for extraction. As a control, an untreated disk and a disk wet with FK506 were used. Each plate was incubated at 30° C. and 37° C. for 2-3 days, and then the antifungal activity of each FK506 derivative was evaluated by comparing the diameters of inhibition zones against Cryptococcus neoformans and Candida albicans. The experiment for analysis of the antifungal activity was repeated at least three times. […] The diameters of the inhibition zones are shown in units of mm.

Candida albicans = test: serum sensitivity of Candida albicans as a function of time (FIG. 3); type: cell-based; details: result in words
Source text: FIG. 3 is a graph showing the inhibitory activity of a composition according to one embodiment of the present invention against Candida albicans as a function of time. FIG. 3 is a graph showing an increased or decreased change in the serum sensitivity of Candida albicans for 31-O-demethyl-FK506 that is FK506 derivative. Lower serum sensitivity with the passage of time indicates higher antifungal activity.

[1] = background statement; result in words; cited from earlier work

Row | SMILES | zone of inhibition at 10 µg/mL (Cryptococcus neoformans) | inhibitory activity against Cryptococcus neoformans compared with FK506 (Cryptococcus neoformans; comparison with FK506, result in words) | inhibition zones at higher concentrations (FIGS. 1 and 2) (Cryptococcus neoformans; result in words) | inhibitory activity against Cryptococcus neoformans (FIGS. 1 and 2) (Cryptococcus neoformans; result in words) | inhibitory activity against Candida albicans compared with FK506, late time points (FIG. 3) (Candida albicans; from 6 hours after treatment) | inhibitory activity against Candida albicans compared with FK506 (FIG. 3) (Candida albicans; serum sensitivity over time) | toxicity or side effects relative to Cyclosporine A [1]
1 | C=CC[C@@H]1/C=C(\C)C[C@H](C)C[C@H](OC)[C@H]2O[C@@](O)(C(=O)C(=O)N3CCCC[C@H]3C(=O)O[C@H](/C(C)=C/C3CC[C@@H](O)[C@H](O)C3)[C@H](C)C(O)CC1=O)[C@H](C)C[C@@H]2OC (stereo in doubt) [Formula (I), 31-O-demethyl-FK506] | 26.4 mm | inhibitory activity higher than FK506 | large inhibition zones | had inhibitory activity | maintained inhibitory activity higher than FK506 | almost equal to that of FK506 | –
2 | C=CC[C@@H]1/C=C(\C)C[C@H](C)C[C@H](OC)[C@H]2O[C@@](O)(CC(=O)N3CCCC[C@H]3C(=O)O[C@H](/C(C)=C/C3CC[C@@H](O)[C@H](OC)C3)[C@H](C)[C@H](O)CC1=O)[C@H](C)C[C@@H]2OC (stereo partly shown) [Formula (II), 9-deoxo-FK506] | 21.6 mm | – | – | had inhibitory activity | – | – | –
3 | C=CC[C@@H]1/C=C(\C)C[C@H](C)C[C@H](OC)[C@H]2O[C@@](O)(CC(=O)N3CCCC[C@H]3C(=O)O[C@H](/C(C)=C/C3CC[C@@H](O)[C@H](O)C3)[C@H](C)[C@H](O)CC1=O)[C@H](C)C[C@@H]2OC (stereo partly shown) [Formula (III), 9-deoxo-31-O-demethyl-FK506] | 21.6 mm | – | large inhibition zones | had inhibitory activity | – | – | –
4 | C=CC[C@@H]1/C=C(\C)C[C@H](C)C[C@H](OC)[C@H]2O[C@@](O)(C(=O)C(=O)N3CCCC[C@H]3C(=O)O[C@H](/C(C)=C/[C@@H]3CC[C@@H](O)[C@H](OC)C3)[C@H](C)[C@@H](O)CC1=O)[C@H](C)C[C@@H]2OC [FK506] | 16.8 mm | – | – | – | – | – | comparable to Cyclosporine A
